{
  "source": "paper PMC4739506",
  "about": "(Nature chemistry, 2013)",
  "tested_on": "P. falciparum 3D7 parasites (schizonts)",
  "assay": "YnMyr treatment of schizonts: morphology and life cycle progression",
  "format": "cell-based",
  "conditions": "up to 50 μM, 5 h",
  "data": [
    {"compound": "C#CCCCCCCCCCCCC(=O)O", "note": "[YnMyr, tetradec-13-ynoic acid]", "values": [
      {"measurement": "changes in morphology or life cycle progression", "value": "no changes were observed in morphology or life cycle progression"}
    ]}
  ]
}
